Source: publication PMC5676206, “Biosynthesis of methyl-proline containing griselimycins, natural products with anti-tuberculosis activity” (Chemical Science, 2017)

Legend:
GriE = target: T1, GriE (Streptomyces muensis, UniProt A0A0E3URV8); test: X-ray crystallography; type: binding
T1 construct: recombinant, produced in E. coli
T1 sequence (A0A0E3URV8 1-270): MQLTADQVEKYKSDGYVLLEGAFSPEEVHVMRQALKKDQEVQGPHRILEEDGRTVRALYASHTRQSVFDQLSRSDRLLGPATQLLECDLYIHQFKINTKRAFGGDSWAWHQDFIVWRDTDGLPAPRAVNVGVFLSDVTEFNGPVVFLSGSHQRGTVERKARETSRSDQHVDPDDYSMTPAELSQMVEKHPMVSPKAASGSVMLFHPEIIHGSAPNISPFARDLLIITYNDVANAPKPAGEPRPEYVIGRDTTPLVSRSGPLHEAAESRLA

GriF = target: T2, GriF (Streptomyces muensis, UniProt A0A0E3URI1); test: LC-MS of product; type: biochemical; conditions: NAD+, ZnSO4; product cyclizes to the pyrroline
T2 construct: recombinant, produced in E. coli
T2 sequence (A0A0E3URI1 1-391): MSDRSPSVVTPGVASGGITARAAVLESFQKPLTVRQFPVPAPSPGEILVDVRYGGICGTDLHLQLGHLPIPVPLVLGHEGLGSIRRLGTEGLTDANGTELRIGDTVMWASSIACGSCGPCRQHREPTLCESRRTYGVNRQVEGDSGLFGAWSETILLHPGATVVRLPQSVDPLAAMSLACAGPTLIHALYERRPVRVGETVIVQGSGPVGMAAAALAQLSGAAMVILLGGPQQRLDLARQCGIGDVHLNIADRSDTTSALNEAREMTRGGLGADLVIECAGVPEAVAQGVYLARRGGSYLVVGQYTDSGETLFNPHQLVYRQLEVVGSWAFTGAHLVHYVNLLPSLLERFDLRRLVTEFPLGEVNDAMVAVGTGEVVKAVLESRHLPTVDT

[1] = co-crystallized with Mn2+, L-leucine and alpha-ketoglutarate, turned over in the crystal set-up, 1.53 Å

Q: For `CC(C)C[C@H](N)C(=O)O` [L-leucine], which X-ray crystallography (GriE; co-crystallized with Co2+ in place of Fe2+ and alpha-ketoglutarate, 1.76 Å, active site, no direct metal contact) is on record?
A: Its X-ray crystallography is “unambiguously revealed bound metal and both L-leucine and α-ketoglutarate”.

Q: `O=C(O)CCC(=O)O` [succinate] was tested. Which X-ray crystallography (GriE; [1]) did it give?
A: Its X-ray crystallography is “succinate coordinates the metal with one carboxylate oxygen”.

Q: `C[C@@H](CO)C[C@H](N)C(=O)O` [(2S,4R)-5-hydroxyleucine] was tested. Which LC-MS of product (GriF) did it give?
A: Its LC-MS of product is “incubation of recombinant GriF with 5-hydroxyleucine, ZnSO4 and NAD^+ was unstable”.

Q: And the X-ray crystallography (GriE; [1])?
A: Its X-ray crystallography is “electron density clearly confirms 5-hydroxyleucine to be the postulated (2S,4R)-diastereomer”.
